From article PMC6136712, “Ex vivo drug sensitivity testing as a means for drug repurposing in esophageal adenocarcinoma” (PLoS ONE, 2018)
Structures can show the parent of a compound that is named as a salt. Where two headings read alike, the source gives them in different places.

Key:
Format in all cases: cell-based, human
OE19 cells = assay: FDA library drug sensitivity testing (CellTiter-Glo, 72 h); details: sDSSmod = DSSmod (patient cells) - DSSmod (normal cells)
Source text: (§1) OE33, OE19 and SKGT2 human esophageal adenocarcinoma cell lines were obtained from the European Collection of Cell Culture ([…]). Flo1, EAC42 and EAC47 cells were established in the Capobianco Laboratory. EAC42 and EAC47 human esophageal adenocarcinoma cell lines are derived from patients undergoing surgery at the Miller School of Medicine, University of Miami. The Capobianco laboratory obtained written informed consent from all patients and approval from the Institutional Research Ethics Committee.
(§2) Drug sensitivity testing (DST) was performed as described previously. […] Individual drugs were dissolved in 100% DMSO and tested in duplicates starting at a maximal test concentration of 10μM then over a 20,000-fold concentration range to generate dose response curves. Wells with assay buffer containing DMSO served as negative controls. 1000 exponentially growing cells were seeded per well in 384-well micro-titer plates and incubated in the presence of compounds in a humidified environment at 37°C and 5% CO2. After 72 hours of treatment, cell viability was assessed by measuring ATP levels via bioluminescence (CellTiter-Glo, Promega) according to manufactures recommendations. Interpretation of curve parameters was performed according to the modified drug sensitivity scoring (DSSmod) function developed by Swords et al. […] Given in this way, the sDSSmod incorporated information on each drug’s potency, efficacy, effect range and therapeutic index, making it possible to prioritize compounds over multiple parameters using a single numerical metric. […] All calculations and scoring routines are implemented in MatLab and additional curve fitting and statistical analyses are performed in GraphPad prism.

OE33 cells = assay: as above
Source text: as §1, §2

SK-GT2 cells = assay: as above
Source text: as §1, §2

EAC47 cells = assay: as above
Source text: as §1, §2

EAC42 cells = assay: as above
Source text: as §1, §2

[1] = tested on: normal esophageal epithelium cell line EACN42; assay: FDA library drug sensitivity testing (CellTiter-Glo, 72 h), normal control cells; set-up: key to DSS: modified drug sensitivity score (DSSmod) from dose-response curve fit
Procedure, shortened: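 HPV E6-E7-immortalized normal human esophageal epithelial cells, 1000 per well, exposed 72 h at 37 °C to drugs in duplicate from 10μM top concentration across a 20,000-fold range. Viability by ATP bioluminescence; DMSO wells as negative control; curves scored with modified drug sensitivity score (DSSmod).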

Flo-1 cells = assay: FDA library drug sensitivity testing (CellTiter-Glo, 72 h)
Source text: as §1
Drug sensitivity testing (DST) was performed as described previously. […] Individual drugs were dissolved in 100% DMSO and tested in duplicates starting at a maximal test concentration of 10μM then over a 20,000-fold concentration range to generate dose response curves. Wells with assay buffer containing DMSO served as negative controls. 1000 exponentially growing cells were seeded per well in 384-well micro-titer plates and incubated in the presence of compounds in a humidified environment at 37°C and 5% CO2. After 72 hours of treatment, cell viability was assessed by measuring ATP levels via bioluminescence (CellTiter-Glo, Promega) according to manufactures recommendations. Interpretation of curve parameters was performed according to the modified drug sensitivity scoring (DSSmod) function developed by Swords et al. As a final step, the selective DSSmod (sDSSmod) for each drug in each patient screen is calculated according to the formula sDSSmod = DSSmod (patient cells)—DSSmod (normal cells). Given in this way, the sDSSmod incorporated information on each drug’s potency, efficacy, effect range and therapeutic index, making it possible to prioritize compounds over multiple parameters using a single numerical metric. In addition, this methodology allows us to rank compounds by cancer-selective efficacy for each individual patient. […] All calculations and scoring routines are implemented in MatLab and additional curve fitting and statistical analyses are performed in GraphPad prism.

[2] = OE33, sDSSmod = DSSmod (patient cells) - DSSmod (normal cells)
[3] = SK-GT2, sDSSmod = DSSmod (patient cells) - DSSmod (normal cells)
[4] = EAC47, sDSSmod = DSSmod (patient cells) - DSSmod (normal cells)
[5] = EAC42, sDSSmod = DSSmod (patient cells) - DSSmod (normal cells)
[6] = Homo sapiens, 72 h, EACN42 normal esophageal cells, cell viability (ATP), max test concentration 10μM
[7] = drug sensitivity score, EACN42 normal esophageal cells, 72 h
[8] = Flo-1, sDSSmod = DSSmod (patient cells) - DSSmod (normal cells)
[9] = Homo sapiens; EACN42 normal esophageal cells, 72 h, cell viability (ATP), max test concentration 10μM

| Compound | sDSSmod (OE19 cells) | sDSSmod (OE33 cells; [2]) | sDSSmod (SK-GT2 cells; [3]) | sDSSmod (EAC47 cells; [4]) | sDSSmod (EAC42 cells; [5]) | EC50 [1, 6] [nM] | DSS [1, 7] | sDSSmod (Flo-1 cells; [8]) | EC50 [1, 9] [nM] | sDSSmod (OE33 cells) | sDSSmod (SK-GT2 cells) | sDSSmod (EAC47 cells) | sDSSmod (EAC42 cells) | EC50 ([1]; EACN42 normal esophageal cells, 72 h, cell viability (ATP), max test concentration 10μM) [nM] | sDSSmod (Flo-1 cells) |
| --- | --- | --- | --- | --- | --- | --- | --- | --- | --- | --- | --- | --- | --- | --- | --- |
| O=C(/C=C/c1cccc(S(=O)(=O)Nc2ccccc2)c1)NO [Belinostat] | -19.002 | -19.002 | -19.002 | 6.846 | 10.9 | 1080 | 19 | -19 |  |  |  |  |  |  |  |
| CC(C)C[C@H](NC(=O)[C@H](Cc1ccccc1)NC(=O)c1cnccn1)B(O)O [Bortezomib] | -35.5757 | -35.5757 | -35.5649 | -23.5292 | -21.0264 | 200 | 35.58 | -35.57 |  |  |  |  |  |  |  |
| CC[C@@]1(O)C(=O)OCc2c1cc1n(c2=O)Cc2cc3ccccc3nc2-1 [Camptothecin] | -34.9341 |  | -11.3049 | -15.9763 | -13.5945 | 20 | 52.69 | -20.76 |  |  |  |  |  |  |  |
| CC(C)C[C@H](NC(=O)[C@H](CCc1ccccc1)NC(=O)CN1CCOCC1)C(=O)N[C@@H](Cc1ccccc1)C(=O)N[C@@H](CC(C)C)C(=O)[C@@]1(C)CO1 [Cartilzomib, Carfilzomib] | -42.8127 | -43.92 | -44.432 |  |  | 80 | 44.43 | -44.35 |  |  |  |  |  |  |  |
| C/C=C(\C)C(=O)N[C@@H](c1ccccc1)[C@@H](O)C(=O)O[C@H]1C[C@@]2(O)[C@@H](OC(=O)c3ccccc3)[C@@H]3[C@]4(OC(C)=O)CO[C@@H]4C[C@H](O)[C@@]3(C)C(=O)[C@H](OC(C)=O)C(=C1C)C2(C)C [Cephalomannine] |  | 5.452 | 21.46 | -8.868 | -5.552 |  | 23.35 | 12.79 | 162 |  |  |  |  |  |  |
| Cc1nc(Nc2ncc(C(=O)Nc3c(C)cccc3Cl)s2)cc(N2CCN(CCO)CC2)n1 [Dasatinib] | -12.8072 | -12.8072 | -12.8072 | -10.2728 | -9.752 | 80 | 12.81 | -12.8 |  |  |  |  |  |  |  |
| COc1cccc2c1C(=O)c1c(O)c3c(c(O)c1C2=O)C[C@@](O)(C(C)=O)C[C@@H]3O[C@H]1C[C@H](N)[C@H](O)[C@H](C)O1 [Daunorubicin HCl] | -13.6679 |  |  |  |  |  | 21.12 | 5.15 | 980 |  |  |  |  |  |  |
| COc1cccc2c1C(=O)c1c(O)c3c(c(O)c1C2=O)C[C@@](O)(C(=O)CO)C[C@@H]3O[C@H]1C[C@H](N)[C@H](O)[C@H](C)O1 [Doxorubicin] | -12.9053 |  | -8.365 |  |  | 1420 | 15.67 | 7.66 |  |  |  |  |  |  |  |
| Nc1nc(F)nc2c1ncn2[C@@H]1O[C@H](COP(=O)(O)O)[C@@H](O)[C@@H]1O [Fludara] | -23.9486 | -12.9868 | -12.9068 | -46.3431 | -46.3431 | 50 | 46.34 | -5.23 |  |  |  |  |  |  |  |
| CC(C)n1c(/C=C/C(O)CC(O)CC(=O)O)c(-c2ccc(F)cc2)c2ccccc21 (stereo not shown) [Fluvastatin sodium] | -16.7184 | -10.5948 | -17.1525 | -15.1417 | -14.3727 | 1060 | 17.36 | -9.71 |  |  |  |  |  |  |  |
| Cc1cn(-c2cc(NC(=O)c3ccc(C)c(Nc4nccc(-c5cccnc5)n4)c3)cc(C(F)(F)F)c2)cn1 [Nilotinib] | 18.74 | 32.09 | 27.22 |  |  | > 10000 | 0.43 | 37.8 |  |  |  |  |  |  |  |
| CC(=O)O[C@H]1C(=O)[C@@]2(C)[C@H]([C@H](OC(=O)c3ccccc3)[C@]3(O)C[C@H](OC(=O)[C@H](O)[C@@H](NC(=O)c4ccccc4)c4ccccc4)C(C)=C1C3(C)C)[C@]1(OC(C)=O)CO[C@@H]1C[C@@H]2O [Paclitaxel] |  | 7.642 | 12.8 | -17.6632 | -12.1 | 10 | 34.94 | 9.33 |  |  |  |  |  |  |  |
| Cc1[nH]c2ccccc2c1CCNCc1ccc(/C=C/C(=O)NO)cc1 [Panobinostat] | -40.4215 | -40.4215 | -40.4215 |  | 7.607 | 90 | 40.42 | -40.42 |  |  |  |  |  |  |  |
| CO[C@H]1C[C@@H]2CC[C@@H](C)[C@@](O)(O2)C(=O)C(=O)N2CCCC[C@H]2C(=O)O[C@H]([C@H](C)C[C@@H]2CC[C@@H](O)[C@H](OC)C2)CC(=O)[C@H](C)/C=C(\C)[C@@H](O)[C@@H](OC)C(=O)[C@H](C)C[C@H](C)/C=C/C=C/C=C/1C [Rapamycin] | -11.012 | -11.012 | -11.012 | -8.931 | -6.15 | 3000 | 11.01 | -10.72 |  |  |  |  |  |  |  |
| [Na+].[Na+].[Na+].[O]=[V]([O-])([O-])[O-] [Sodium orthovanadate] | 5.913 |  | 23.66 |  |  |  | 0 | 13.33 |  |  |  |  |  |  |  |
| CO[C@H]1C[C@@H]2CC[C@@H](C)[C@@](O)(O2)C(=O)C(=O)N2CCCC[C@H]2C(=O)O[C@H]([C@H](C)C[C@@H]2CC[C@@H](OC(=O)C(C)(CO)CO)[C@H](OC)C2)CC(=O)[C@H](C)/C=C(\C)[C@@H](O)[C@@H](OC)C(=O)[C@H](C)C[C@H](C)/C=C/C=C/C=C/1C [Temsirolimus] | -11.9329 | -11.9329 | -11.9329 | -9.994 | -5.1083 | > 10000 | 11.93 | -11.93 |  |  |  |  |  |  |  |
| CC[C@@]1(O)C(=O)OCc2c1cc1n(c2=O)Cc2cc3c(CN(C)C)c(O)ccc3nc2-1 [Topotecan HCl] | -36.6414 |  | -13.0332 | -11.6273 | -9.367 | 60 | 43.21 | -20.26 |  |  |  |  |  |  |  |
| CC[C@]1(O)C[C@H]2CN(CCc3c([nH]c4ccccc34)[C@@](C(=O)OC)(c3cc4c(cc3OC)N(C=O)[C@H]3[C@@](O)(C(=O)OC)[C@H](OC(C)=O)[C@]5(CC)C=CCN6CC[C@]43[C@@H]65)C2)C1 [Vincristine] |  | -8.234 | -7.21 | -16.3015 | -7.92 | 30 |  | 6.31 |  |  |  |  |  |  |  |
| O=C(CCCCCCC(=O)Nc1ccccc1)NO [Vorinostat] | 9.843 | 15.71 |  | 5.288 | 7.485 |  | 5.09 | 9.58 |  |  |  |  |  |  |  |
| Bleomycin sulfate | -18.9933 |  |  |  |  |  | 30.58 |  |  | -15.1946 | -29.9671 | -29.4923 | -29.1318 | 370 | -18.12 |
